T1: Cytochrome P450 2B6 (Homo sapiens, UniProt P20813)
T1 sequence (P20813 whole entry): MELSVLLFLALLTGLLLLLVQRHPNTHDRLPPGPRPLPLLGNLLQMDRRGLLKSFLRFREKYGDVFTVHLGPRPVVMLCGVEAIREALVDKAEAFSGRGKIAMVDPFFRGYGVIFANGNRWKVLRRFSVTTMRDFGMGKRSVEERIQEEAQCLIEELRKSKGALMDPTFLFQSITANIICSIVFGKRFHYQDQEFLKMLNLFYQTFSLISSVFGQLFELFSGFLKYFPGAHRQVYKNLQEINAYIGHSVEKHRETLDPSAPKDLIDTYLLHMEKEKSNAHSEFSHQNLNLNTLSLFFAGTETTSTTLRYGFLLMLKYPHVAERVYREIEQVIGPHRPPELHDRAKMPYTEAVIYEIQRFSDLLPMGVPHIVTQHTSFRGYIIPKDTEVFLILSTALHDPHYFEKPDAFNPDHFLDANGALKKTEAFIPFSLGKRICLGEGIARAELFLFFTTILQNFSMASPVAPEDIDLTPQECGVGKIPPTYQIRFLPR

T2: Cytochrome P450 4F3 (Homo sapiens, UniProt Q08477)
T2 sequence (Q08477 whole entry): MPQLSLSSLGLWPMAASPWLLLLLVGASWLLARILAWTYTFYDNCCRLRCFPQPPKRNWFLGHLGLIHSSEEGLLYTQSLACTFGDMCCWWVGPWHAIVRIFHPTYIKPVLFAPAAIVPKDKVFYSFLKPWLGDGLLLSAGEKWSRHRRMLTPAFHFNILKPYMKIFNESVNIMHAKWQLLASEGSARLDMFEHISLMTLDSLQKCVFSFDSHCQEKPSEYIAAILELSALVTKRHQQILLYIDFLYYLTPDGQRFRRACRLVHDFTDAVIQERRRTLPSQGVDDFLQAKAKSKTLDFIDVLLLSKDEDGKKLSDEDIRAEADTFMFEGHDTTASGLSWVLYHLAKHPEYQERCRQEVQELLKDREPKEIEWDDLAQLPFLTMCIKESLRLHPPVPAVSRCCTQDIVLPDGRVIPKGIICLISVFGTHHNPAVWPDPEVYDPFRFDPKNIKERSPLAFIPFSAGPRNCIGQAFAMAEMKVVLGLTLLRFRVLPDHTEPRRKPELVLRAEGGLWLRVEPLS

T3: Cytochrome P450 1A1 (Homo sapiens, UniProt P04798)
T3 sequence (P04798 whole entry): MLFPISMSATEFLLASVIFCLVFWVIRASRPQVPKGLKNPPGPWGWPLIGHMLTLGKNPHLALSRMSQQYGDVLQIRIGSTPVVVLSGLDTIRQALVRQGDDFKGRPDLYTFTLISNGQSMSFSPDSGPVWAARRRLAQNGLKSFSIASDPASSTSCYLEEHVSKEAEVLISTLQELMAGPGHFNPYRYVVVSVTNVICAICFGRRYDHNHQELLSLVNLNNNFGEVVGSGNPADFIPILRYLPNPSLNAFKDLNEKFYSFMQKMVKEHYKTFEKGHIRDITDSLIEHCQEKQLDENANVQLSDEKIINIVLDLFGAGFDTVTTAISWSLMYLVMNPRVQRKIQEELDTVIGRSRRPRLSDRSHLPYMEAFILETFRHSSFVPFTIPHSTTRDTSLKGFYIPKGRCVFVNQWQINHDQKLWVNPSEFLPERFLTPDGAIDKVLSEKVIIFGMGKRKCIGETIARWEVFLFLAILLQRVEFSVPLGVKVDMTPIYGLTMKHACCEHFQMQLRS

T4: Cytochrome P450 1A2 (Homo sapiens, UniProt P05177)
T4 sequence (P05177 whole entry): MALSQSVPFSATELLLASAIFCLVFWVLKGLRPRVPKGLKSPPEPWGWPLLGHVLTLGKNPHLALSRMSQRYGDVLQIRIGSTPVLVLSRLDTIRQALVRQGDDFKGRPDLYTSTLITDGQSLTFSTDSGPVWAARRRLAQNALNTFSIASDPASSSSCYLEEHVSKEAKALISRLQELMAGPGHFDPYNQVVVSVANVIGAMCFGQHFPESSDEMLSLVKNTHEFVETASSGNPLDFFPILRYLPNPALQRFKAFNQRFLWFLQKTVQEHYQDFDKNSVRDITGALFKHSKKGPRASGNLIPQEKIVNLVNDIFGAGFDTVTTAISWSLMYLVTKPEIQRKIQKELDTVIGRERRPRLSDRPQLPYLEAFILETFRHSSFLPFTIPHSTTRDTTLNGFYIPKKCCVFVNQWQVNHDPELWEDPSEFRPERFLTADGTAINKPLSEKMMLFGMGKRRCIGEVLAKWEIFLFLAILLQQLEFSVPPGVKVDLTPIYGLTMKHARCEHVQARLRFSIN


Assays:
[1] = biological target: T1, Cytochrome P450 2B6; assay: Drug metabolism assessed as human CYP2B6-mediated compound formation from 5 uM [14C]boceprevir after 120 mins by LC-MS/FSA method relative to total [14C]boceprevir; format: ADME; settings: recombinant enzyme, 2 h
[2] = biological target: T5, Cytochrome P450 3A5 (Homo sapiens, UniProt P20815); assay: Drug metabolism assessed as human CYP3A5-mediated compound formation from 20 uM [14C]boceprevir after 120 mins by LC-MS/FSA method relative to total [14C]boceprevir; format: ADME; settings: recombinant enzyme, 2 h
[3] = Retention time of the compound by LC-MS/MS method; format: physicochemical
[4] = biological target: T5, Cytochrome P450 3A5; assay: Drug metabolism assessed as human CYP3A5-mediated compound formation from 5 uM [14C]boceprevir after 120 mins by LC-MS/FSA method relative to total [14C]boceprevir; format: ADME; settings: recombinant enzyme, 2 h
[5] = biological target: T6, Cytochrome P450 3A4 (Homo sapiens, UniProt P08684); assay: Drug metabolism assessed as human CYP3A4-mediated compound formation from 5 uM [14C]boceprevir after 120 mins by LC-MS/FSA method relative to total [14C]boceprevir; format: ADME; settings: recombinant enzyme, 2 h
[6] = biological target: T6, Cytochrome P450 3A4; assay: Drug metabolism assessed as human CYP3A4-mediated compound formation from 20 uM [14C]boceprevir after 120 mins by LC-MS/FSA method relative to total [14C]boceprevir; format: ADME; settings: recombinant enzyme, 2 h
[7] = test system: Plasma; assay: Drug metabolism in human plasma treated with [14C]boceprevir assessed as ratio of drug level by LC-MS/MS method relative to boceprevir; format: ADME, cell-free
[8] = biological target: T2, Cytochrome P450 4F3; assay: Drug metabolism assessed as human CYP4F3A-mediated compound formation from 5 uM [14C]boceprevir after 120 mins by LC-MS/FSA method relative to total [14C]boceprevir; format: ADME; settings: recombinant enzyme, 2 h
[9] = biological target: Cytochrome P450 2D6 (Homo sapiens, UniProt P10635); assay: Drug metabolism assessed as human CYP2D6-mediated compound formation from 5 uM [14C]boceprevir after 120 mins by LC-MS/FSA method relative to total [14C]boceprevir; format: ADME; settings: recombinant enzyme, 2 h
[10] = biological target: T3, Cytochrome P450 1A1; assay: (§1) Drug metabolism assessed as human […]-mediated compound formation from 5 uM [14C]boceprevir after 120 mins by LC-MS/FSA method relative to total [14C]boceprevir; format: ADME; settings: recombinant enzyme, 2 h
[11] = biological target: T4, Cytochrome P450 1A2; assay: as §1; format: ADME; settings: recombinant enzyme, 2 h
[12] = biological target: Cytochrome P450 2C19 (Homo sapiens, UniProt P33261); assay: Drug metabolism assessed as human CYP2C19-mediated compound formation from 5 uM [14C]boceprevir after 120 mins by LC-MS/FSA method relative to total [14C]boceprevir; format: ADME; settings: recombinant enzyme, 2 h
[13] = test system: Liver cytosol; assay: (§2) Drug metabolism in human liver cytosol assessed as (1R,2S,5S)-N-((2S,3R)-4-amino-1-cyclobutyl-3-hydroxy-4-oxobutan-2-yl)-3-((S)-2-(3-tert-butylureido)-3,3-dimethylbutanoyl)-6,6-dimethyl-3-azabicyclo[3.1.0]hexane-2-carboxamide formation per mg protein after 60 mins by LC-MS/MS/FSA method; format: ADME, tissue-based; settings: 1 h
[14] = test system: Liver cytosol; assay: Drug metabolism in human liver cytosol assessed as (1R,2S,5S)-N-((2S,3R)-4-amino-1-cyclobutyl-3-hydroxy-4-oxobutan-2-yl)-3-((S)-2-(3-tert-butylureido)-3,3-dimethylbutanoyl)-6,6-dimethyl-3-azabicyclo[3.1.0]hexane-2-carboxamide formation after 60 mins by LC-MS/MS/FSA method; format: ADME, tissue-based; settings: 1 h
[15] = test system: Liver microsome; assay: Drug metabolism in human liver microsomes treated with 5 uM [14C]boceprevir assessed as compound formation by LC-MS/FSA method relative to total [14C]boceprevir; format: ADME
[16] = test system: Liver cytosol; assay: as §2, with “Ratio of Vmax to Km for drug” for “Drug”; format: ADME; settings: 1 h
[17] = test system: Liver microsome; assay: Drug metabolism in human liver microsomes treated with 20 uM [14C]boceprevir assessed as compound formation by LC-MS/FSA method relative to total [14C]boceprevir; format: ADME
[18] = substrate: CC(C)(C)NC(=O)N[C@H](C(=O)N1C[C@H]2[C@@H]([C@H]1C(=O)NC(CC1CCC1)C(=O)C(N)=O)C2(C)C)C(C)(C)C; assay: Activity of human recombinant AKR1C2 expressed in HEK293 cells assessed as (1R,2S,5S)-N-((2S,3R)-4-amino-1-cyclobutyl-3-hydroxy-4-oxobutan-2-yl)-3-((S)-2-(3-tert-butylureido)-3,3-dimethylbutanoyl)-6,6-dimethyl-3-azabicyclo[3.1.0]hexane-2-carboxamide formation after 120 mins in presence of NADPH by LC-MS/MS/FSA method; format: ADME, cell-based

T5 sequence (P20815 whole entry): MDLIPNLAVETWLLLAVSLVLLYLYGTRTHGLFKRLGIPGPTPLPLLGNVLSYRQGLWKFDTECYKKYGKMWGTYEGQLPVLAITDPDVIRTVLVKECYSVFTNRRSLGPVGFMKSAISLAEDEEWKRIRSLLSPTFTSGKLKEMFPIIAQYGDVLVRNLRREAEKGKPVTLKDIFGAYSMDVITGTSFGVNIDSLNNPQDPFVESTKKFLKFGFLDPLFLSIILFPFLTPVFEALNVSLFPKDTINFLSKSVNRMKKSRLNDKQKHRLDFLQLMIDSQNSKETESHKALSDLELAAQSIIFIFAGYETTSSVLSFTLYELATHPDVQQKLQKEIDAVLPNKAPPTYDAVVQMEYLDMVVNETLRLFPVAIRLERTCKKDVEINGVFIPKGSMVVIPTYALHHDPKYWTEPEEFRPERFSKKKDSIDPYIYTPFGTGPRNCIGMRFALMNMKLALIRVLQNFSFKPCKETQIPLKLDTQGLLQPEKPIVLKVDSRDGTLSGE
T6 sequence (P08684 whole entry): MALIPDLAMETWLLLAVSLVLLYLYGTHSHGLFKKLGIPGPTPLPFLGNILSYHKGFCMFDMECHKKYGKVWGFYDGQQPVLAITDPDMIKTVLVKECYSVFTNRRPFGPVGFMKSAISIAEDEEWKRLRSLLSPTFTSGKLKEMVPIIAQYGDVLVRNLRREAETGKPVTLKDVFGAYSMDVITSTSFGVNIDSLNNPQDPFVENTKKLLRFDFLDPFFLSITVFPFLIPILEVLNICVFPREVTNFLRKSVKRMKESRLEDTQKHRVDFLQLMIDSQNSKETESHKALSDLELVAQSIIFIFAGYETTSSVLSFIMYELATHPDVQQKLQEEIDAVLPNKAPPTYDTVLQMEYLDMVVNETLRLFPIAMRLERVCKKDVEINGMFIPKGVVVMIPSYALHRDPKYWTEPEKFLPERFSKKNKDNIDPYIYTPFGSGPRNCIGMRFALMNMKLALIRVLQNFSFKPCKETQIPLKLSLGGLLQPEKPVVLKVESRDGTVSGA
Sequence of Cytochrome P450 2D6 (P10635 whole entry): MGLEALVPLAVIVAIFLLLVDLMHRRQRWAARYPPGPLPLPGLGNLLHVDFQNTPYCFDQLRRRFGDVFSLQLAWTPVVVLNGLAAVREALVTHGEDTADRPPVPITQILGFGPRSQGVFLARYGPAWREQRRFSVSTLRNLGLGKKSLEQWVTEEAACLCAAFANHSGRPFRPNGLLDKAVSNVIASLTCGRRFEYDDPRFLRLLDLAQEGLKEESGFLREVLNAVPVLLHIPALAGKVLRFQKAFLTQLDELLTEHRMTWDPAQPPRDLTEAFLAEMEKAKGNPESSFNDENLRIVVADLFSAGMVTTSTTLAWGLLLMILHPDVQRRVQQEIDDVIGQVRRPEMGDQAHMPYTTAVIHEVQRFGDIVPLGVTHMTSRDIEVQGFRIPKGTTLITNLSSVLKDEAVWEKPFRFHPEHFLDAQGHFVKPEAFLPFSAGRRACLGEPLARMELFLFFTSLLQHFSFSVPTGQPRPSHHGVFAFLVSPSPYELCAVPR
Sequence of Cytochrome P450 2C19 (P33261 whole entry): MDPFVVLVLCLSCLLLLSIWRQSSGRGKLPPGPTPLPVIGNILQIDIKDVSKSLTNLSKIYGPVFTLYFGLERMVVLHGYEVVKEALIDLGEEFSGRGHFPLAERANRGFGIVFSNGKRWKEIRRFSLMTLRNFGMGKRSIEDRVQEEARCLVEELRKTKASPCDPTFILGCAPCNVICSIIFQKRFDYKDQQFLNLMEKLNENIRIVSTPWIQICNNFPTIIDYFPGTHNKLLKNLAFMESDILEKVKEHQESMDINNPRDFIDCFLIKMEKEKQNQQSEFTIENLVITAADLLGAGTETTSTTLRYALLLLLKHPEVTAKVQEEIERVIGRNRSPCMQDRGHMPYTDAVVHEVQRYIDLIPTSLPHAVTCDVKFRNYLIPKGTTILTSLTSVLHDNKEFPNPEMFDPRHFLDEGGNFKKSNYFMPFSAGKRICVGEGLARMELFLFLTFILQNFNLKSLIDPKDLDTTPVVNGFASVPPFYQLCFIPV

Row | Compound recovery [1] [%] | Compound recovery [2] [%] | Retention_time [3] [min] | Compound recovery [4] [%] | Compound recovery [5] [%] | Compound recovery [6] [%] | Compound recovery [7] | Compound recovery [8] [%] | Compound recovery [9] [%] | Compound recovery [10] [%] | Compound recovery [11] [%] | Compound recovery [12] [%] | Vmax [13] [pmol/min] | Km [14] [µM] | Compound recovery [15] [%] | Compound recovery ([5]; BLD = below limit of detection) | Vmax/Km [16] [µL/min] | Compound recovery [17] [%] | Molecule | Km [18] [µM] | Vmax [18] [µmol/min]
1 | 2.06 | 2.87 | 22.2 | 15.74 | < 3.45 | < 4.64 | 10% | 0.61 | 1.9 | 2.9 | 1.37 |  |  |  |  |  |  |  | CC(C)(C)NC(=O)N[C@H](C(=O)N1C[C@H]2[C@@H]([C@H]1C(N)=O)C2(C)C)C(C)(C)C |  | 
2 | 56.54 | 38.77 | 42.8 | 0.98 |  | 37.98 | >= 50% | 57.31 | 57.22 | 55.46 | 59.66 | 60.3 | 0.361 | 35.5 | 0.21 | BLD | 10.2 | 26.12 | CC(C)(C)NC(=O)N[C@H](C(=O)N1C[C@H]2[C@@H]([C@H]1C(=O)N[C@@H](CC1CCC1)C(=O)C(N)=O)C2(C)C)C(C)(C)C [BOCEPREVIR] |  | 
3 |  |  |  |  |  |  |  |  |  |  |  |  |  |  |  |  |  |  | Aldo-keto reductase family 1 member C2 (Homo sapiens) (protein) MDSKYQCVKLNDGHFMPVLGFGTYAPAEVPKSKALEAVKLAIEAGFHHIDSAHVYNNEEQVGLAIRSKIADGSVKREDIFYTSKLWSNSHRPELVRPALERSLKNLQLDYVDLYLIHFPVSVKPGEEVIPKDENGKILFDTVDLCATWEAMEKCKDAGLAKSIGVSNFNHRLLEMILNKPGLKYKPVCNQVECHPYFNQRKLLDFCKSKDIVLVAYSALGSHREEPWVDPNSPVLLEDPVLCALAKKHKRTPALIALRYQLQRGVVVLAKSYNEQRIRQNVQVFEFQLTSEEMKAIDGLNRNVRYLTLDIFAGPPNYPFSDEY | 52.3 | 4.07e-05
